Results reported in PubChem BioAssay (NCI).
Where “and” joins values, the source holds several entries; their conditions need not be identical. Identical values can stand only once.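 Step 1: Grow cells in 96-well plates. Step 2: Expose to compound for 48 hours at 5 concentrations. Step 3: Interpolate endpoints linearly; if unreached, use highest concentration. GI50 is the concentration that inhibits growth by half. TGI is the concentration that stops growth completely.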

What was measured:
Assay in all cases: NCI tumour cell line growth inhibition, 48 h
HCT-15 colon = system: HCT-15 colon
SNB-19 CNS = system: SNB-19 CNS
SF-268 CNS = system: SF-268 CNS
SF-539 CNS = system: SF-539 CNS
SW-620 colon = system: SW-620 colon
OVCAR-4 ovarian = system: OVCAR-4 ovarian
MOLT-4 leukemia = system: MOLT-4 leukemia
NCI-H522 lung = system: NCI-H522 lung
MDA-N = system: MDA-N
PC-3 prostate = system: PC-3 prostate
T-47D breast = system: T-47D breast

Row | SMILES | TGI (HCT-15 colon) [µM] | TGI (SNB-19 CNS) [µM] | TGI (SF-268 CNS) [µM] | TGI (SF-539 CNS) | TGI (SW-620 colon) [µM] | TGI (OVCAR-4 ovarian) [µM] | TGI (MOLT-4 leukemia) [µM] | TGI (NCI-H522 lung) | TGI (MDA-N) [µM] | TGI (PC-3 prostate) [µM] | TGI (T-47D breast) [µM] | GI50 (HCT-15 colon) [µM] | GI50 (SF-268 CNS) [µM] | GI50 (T-47D breast) [µM] | GI50 (SF-539 CNS) [µM] | GI50 (NCI-H522 lung) [µM] | GI50 (OVCAR-4 ovarian) [µM] | GI50 (MOLT-4 leukemia) [µM] | GI50 (SNB-19 CNS) [µM] | GI50 (SW-620 colon) [µM]
1 | N#Cc1ccccc1NC(=O)C(=O)C1NC(=S)NC1=O (stereo not given) | > 100 | > 100 | > 100 | > 100 µM | > 100 | > 100 | > 100 |  |  |  |  |  |  |  |  |  |  |  |  | 
2 | CCOc1cc2c(cc1O)C(O)C[C@@H]1[C@@H]2CC[C@]2(C)[C@@H](O)CC[C@@H]12 (stereo not given in full) | > 100 | > 61.8 | > 100 | 3.6 µM | > 100 | > 100 | > 100 | 0.95 µM | 0.326 | > 100 |  |  |  |  |  |  |  |  |  | 
3 | COC(=O)Cn1cnc2c(Cl)nc(Nc3ccccc3)nc21 | 80.4 | > 100 |  | > 100 µM | > 100 | > 100 | 84.7 |  | > 100 | > 100 | > 100 |  |  |  |  |  |  |  |  | 
4 | O=C1NC(Cc2ccc(O)cc2)C(=O)NC1Cc1ccc(O)cc1 (stereo not given) | > 100 | > 100 | > 100 | > 100 µM | > 100 | > 100 | > 100 | > 100 µM | > 100 | > 100 |  |  |  |  |  |  |  |  |  | 
5 | O=c1c2ccccc2nc2ccc3c(Cl)[nH][nH]c3c12 | > 100 | > 100 | > 100 |  | > 100 | > 100 | > 79 | > 83.1 µM |  |  |  |  |  |  |  |  |  |  |  | 
6 | CCN(CC)C(=O)Cn1c2c(c3ccccc31)CCCC2 | > 100 | > 100 | > 100 | > 100 µM | > 100 |  |  |  | > 100 | > 100 |  |  |  |  |  |  |  |  |  | 
7 | [N-]=[N+]=NCC(O)Cn1cnc2c(NC(=O)c3ccccc3)ncnc21 (stereo not given) | > 100 | > 100 | > 100 | > 100 µM | > 100 | > 100 | > 100 | > 100 µM |  |  |  |  |  |  |  |  |  |  |  | 
8 | Cc1ccc(S(=O)(=O)NC(=O)C2=C3SCCN3C(=O)N(S(=O)(=O)c3ccc(C)cc3)C2c2ccccc2)cc1 (stereo not given) | > 100 | > 100 | > 100 | 61.6 µM | > 100 | > 100 | > 100 | 46.7 µM |  | > 100 | > 100 |  |  |  |  |  |  |  |  | 
9 | Cc1c2cccc-2ccc2c3ccccc3n(C(=O)c3ccc(Cl)cc3)c12 | > 100 | > 100 | > 100 | > 100 µM | > 100 | > 100 | > 100 | > 100 µM |  | > 100 |  |  |  |  |  |  |  |  |  | 
10 | CCCCN(C)/N=N/c1nc[nH]c1C(N)=O | > 100 | > 100 | > 100 | > 100 µM | > 100 | > 100 | > 100 | > 100 µM |  |  |  |  |  |  |  |  |  |  |  | 
11 | COc1ccc(C(=O)/C=C/c2cc(-c3cc(OC)c(OC)c(OC)c3)n[nH]2)cc1 | 4.37 |  | 5.12 | 3.08 µM |  | 8.32 | 6.82 | 3.2 µM |  |  | 13 | 1.58 | 1.99 | 2.31 | 1.62 | 1.47 | 2.2 | 2.67 |  | 
12 | COc1ccc(Oc2ccccc2N)cc1 | > 100 |  | > 100 | 57.3 µM | > 100 | > 100 | > 100 |  |  |  |  |  |  |  |  |  |  |  |  | 
13 | Cn1c(=O)sc2cc(C(=S)N3CCCCC3)ccc21 | > 100 | > 100 | > 100 | > 100 µM | > 100 |  | > 100 |  | > 100 | > 100 |  |  |  |  |  |  |  |  |  | 
14 | COc1ccc2cc(C(C)C(=O)N3C(=O)OCC3(C)C)ccc2c1 (stereo not given) | > 100 | > 100 | > 100 |  | > 100 | > 100 | > 100 |  | > 100 | > 100 | > 100 |  |  |  |  |  |  |  |  | 
15 | CCC(=O)OC1CCn2c1nc1c2C(=O)C(C)=C(NC(C)=O)C1=N (stereo not given) | 6.27 | 16.8 | 4.94 | 3.21 µM | 2.44 | 2.66 |  | 2.79 µM |  |  |  |  |  |  |  |  |  |  |  | 
16 | CC1(C)O[C@@H](C[C@]2(C#N)C[C@H](CCl)OC(C)(C)O2)C[C@@H](C#N)O1 | > 100 | > 100 | > 100 | > 100 µM | > 100 | > 100 | > 100 | > 100 µM |  |  |  |  |  |  |  |  |  |  |  | 
17 | O=c1[nH]nc(Cc2ccc(Cl)cc2)n1/N=C/c1ccc([N+](=O)[O-])o1 | 11.5 | 33.3 | 7.93 | 9.39 µM | > 21.6 | 15.9 | > 26.6 | 4.18 µM |  | > 75.1 | > 77.6 |  |  |  |  |  |  |  |  | 

Row | SMILES | TGI (HCT-15 colon) [µM] | TGI (SNB-19 CNS) [µM] | TGI (SF-268 CNS) [µM] | TGI (SF-539 CNS) | TGI (SW-620 colon) [µM] | TGI (OVCAR-4 ovarian) [µM] | TGI (MOLT-4 leukemia) [µM] | TGI (NCI-H522 lung) | TGI (MDA-N) [µM] | TGI (PC-3 prostate) [µM] | TGI (T-47D breast) [µM] | GI50 (HCT-15 colon) [µM] | GI50 (SF-268 CNS) [µM] | GI50 (T-47D breast) [µM] | GI50 (SF-539 CNS) [µM] | GI50 (NCI-H522 lung) [µM] | GI50 (OVCAR-4 ovarian) [µM] | GI50 (MOLT-4 leukemia) [µM] | GI50 (SNB-19 CNS) [µM] | GI50 (SW-620 colon) [µM]
18 | Cc1cc(-c2nc3cccc(O)c3s2)ccc1N | > 100 | 7.43 | > 100 | > 100 µM | > 100 |  | 78.4 |  | > 100 | 98.5 | > 100 |  |  |  |  |  |  |  |  | 
19 | Nc1c(S(=O)(=O)O)cc(S(=O)(=O)O)c2ccc(N=Nc3ccc(/C=C/c4ccc(N=Nc5ccc6c(S(=O)(=O)O)cc(S(=O)(=O)O)c(N)c6c5O)cc4S(=O)(=O)O)c(S(=O)(=O)O)c3)c(O)c12 | > 100 | > 100 | > 100 | > 100 µM | > 100 | > 100 | > 100 | > 100 µM |  |  |  |  |  |  |  |  |  |  |  | 
20 | CSc1cnc2ccccc2c1Sc1c[nH]c2ccccc2c1=O | > 80.8 | 65.4 | > 100 | 31.1 µM | > 32.3 | 33 | > 44.7 | 11 µM |  |  |  |  |  |  |  |  |  |  |  | 
21 | CCOC(=O)C1=C(O)c2ccc(C)cc2C(=O)C1=O | > 100 | > 100 | > 100 | > 100 µM | > 100 | > 100 | > 100 | > 100 µM |  |  |  |  |  |  |  |  |  |  |  | 
22 | CC1(C)C=C(/C=N/Nc2ccccc2)C(C#N)=C(O)C1(C#N)C#N |  | > 100 | > 100 | > 100 µM | > 100 | > 100 | > 100 | > 100 µM | > 100 | > 100 |  |  |  |  |  |  |  |  |  | 
23 | Clc1ccc(C2=CCN3CC=C(c4ccc(Cl)cc4)C23)cc1 | 23.5 | 31.6 | 24.2 | 31.1 µM | 26 | 26.1 | 28 | 22.8 µM | 22.7 |  | 29.2 |  |  |  |  |  |  |  |  | 
24 | CC(C)c1cc(C(C)C)c(S(=O)(=O)N=[N+]=[N-])c(C(C)C)c1 | > 100 | > 100 | > 100 | > 100 µM | > 100 | > 100 | > 100 | > 100 µM |  |  |  |  |  |  |  |  |  |  |  | 
25 | COc1ccccc1C1C(C#N)=C(N)Oc2n[nH]c(C)c21 (stereo not given) | > 100 | > 100 | > 100 | > 100 µM | > 100 | > 100 | > 100 | > 100 µM |  |  | > 100 | > 100 | > 100 | > 100 | > 100 | 56.3 | > 100 | > 100 | > 100 | > 100
26 | CCN(CC)CC1CCCCN1CC(=O)N1CC(C)C(=O)Nc2ccccc21 (stereo not given) | > 100 | > 100 | > 100 |  | > 100 | > 100 | > 100 |  |  |  |  |  |  |  |  |  |  |  |  | 
27 | COc1cc2nc(-c3cccs3)nc(Nc3cccc(Cl)c3)c2cc1OC | > 100 | > 100 | > 100 | > 100 µM | > 100 | > 100 | > 100 | > 100 µM |  | 56.8 | > 100 |  |  |  |  |  |  |  |  | 
28 | O=C1/C(=C/c2cccc3ccccc23)CCc2ccc([N+](=O)[O-])cc21 | > 100 | 43.7 | > 100 | 73.5 µM | > 100 |  | > 100 |  | 23.4 | > 100 | > 100 |  |  |  |  |  |  |  |  | 
29 | O=C1C2C=CC(n3[nH]c(=O)n(Cc4ccccc4)c3=O)CC2C(=O)N1c1ccc(Br)cc1 (stereo not given) | > 100 | > 100 | > 100 | > 100 µM | > 100 | > 100 | > 100 | > 100 µM |  |  |  |  |  |  |  |  |  |  |  | 
30 | C=C1C(C)C2C(Cc3ccccc3)NC(=O)C23OC(=O)/C=C\CC(=O)CCC(C)C/C=C/C3C1O (stereo not given) | 4.41 | 12.9 | 7.48 | 4.39 µM | 3.82 | 7.39 | 3.83 | 0.931 µM and 2.52 µM |  |  |  |  |  |  |  | 0.366 |  | 1.01 |  | 
31 | COc1cc2c(c(OC)c1OC)-c1ccc(SC)c(=O)cc1[C@@H](NCc1ccc([N+](=O)[O-])cc1)CC2 | 0.0324 | > 100 |  | 0.00672 µM and 0.0112 µM | > 100 |  | > 100 | 0.0119 µM |  |  |  |  |  |  |  |  |  |  |  | 
32 | Cc1c2ccncc2c(C)c2c1[nH]c1ccc(OCCN(C)C)cc12 | 0.706 | 0.958 | 0.919 | 2.38 µM | 0.406 | 0.368 | 0.157 | 1.16 µM |  |  |  |  |  |  |  |  |  |  |  | 
33 | CN(C)CC1CCC(CN(C)C)C(=O)C1=O (stereo not given) | 7.78 | 29.9 | 10.9 | 12.6 µM | 3.33 | 18.3 | 4.96 | 1.38 µM |  | 31.1 | 5.36 |  |  |  |  |  |  |  |  | 
34 | N/C(=N\N=C\c1ncccc1O)NO | > 100 | 98.9 | 90.8 | 59.1 µM | > 100 | > 100 | > 64.4 | 87.9 µM |  |  |  |  |  |  |  |  |  |  |  | 
